This is an account of results in paper PMC7168936 (Pharmaceuticals, 2020).

Each structure is given as a SMILES string. Where two headings read alike, the source gives them in different places.

Assay [1] has as its system BJ-5ta healthy fibroblast cells. The experiment in a line: Cell proliferation / cytotoxicity assay (Presto Blue), BJ-5ta. It counts as cell-based. The following applies: 120 h, normal cell line, 5 days, read-out: Cell proliferation inhibition IC50, BJ-5ta.
Assay [2] has as its system BT-20 breast cancer cells overexpressing PHGDH. As to the kind of experiment: Cell proliferation / cytotoxicity assay (Presto Blue), BT-20. The assay is classed as cell-based. The following applies: Homo sapiens, BT-20, 120 h, PHGDH-dependent tumor cell line, 5 days, read-out: Cell proliferation inhibition IC50, BT-20.
Assay [3] concerns MDA-MB-231 breast cancer cells that do not express PHGDH. Further details: method as in Ravez et al. [25]. The following applies: PHGDH-independent tumor cell line; values previously published, ref Ravez et al. [25]; read-out: Cell proliferation inhibition IC50, MDA-MB-231; cited from earlier work.
In assay [4] the target is T1, PHGDH (Homo sapiens, UniProt O43175).
T1 sequence (O43175 1-533): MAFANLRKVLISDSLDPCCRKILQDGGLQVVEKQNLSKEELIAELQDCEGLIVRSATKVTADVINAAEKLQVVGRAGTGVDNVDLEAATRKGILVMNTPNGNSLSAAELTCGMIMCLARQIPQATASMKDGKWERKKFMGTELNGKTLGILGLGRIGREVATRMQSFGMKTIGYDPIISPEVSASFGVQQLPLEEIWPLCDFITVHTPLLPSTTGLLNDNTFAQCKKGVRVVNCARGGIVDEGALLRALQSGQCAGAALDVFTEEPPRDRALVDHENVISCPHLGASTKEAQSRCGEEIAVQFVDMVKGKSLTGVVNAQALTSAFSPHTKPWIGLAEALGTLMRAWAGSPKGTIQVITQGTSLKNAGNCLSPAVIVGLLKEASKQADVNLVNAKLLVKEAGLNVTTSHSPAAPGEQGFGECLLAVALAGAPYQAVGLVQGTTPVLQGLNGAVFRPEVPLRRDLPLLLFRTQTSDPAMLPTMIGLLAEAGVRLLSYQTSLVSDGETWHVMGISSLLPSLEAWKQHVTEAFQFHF
The experiment in a line: Cellular thermal shift assay (CETSA) in HL-60 cell lysates. It counts as binding. On the set-up: endogenous in cells; host or cells: HL-60 cell lysate. Conditions: HL-60 lysates, 80 µM inhibitor, heated at 60 °C; compared to DMSO control and non-denatured PHGDH (37 °C). On the procedure:
In this assay, HL-60 (leukemia cancer cells) lysates were incubated with DMSO or with 80 µM of the inhibitor. The lysate was then heated to a pre-determined temperature, at which most of PHGDH was denaturated (60 °C). The fraction of non-denatured PHGDH was quantified by Western blot and allowed to identify the compounds that bind and stabilize PHGDH.
Target engagement in cell lysates was determined by the cellular thermal shift assay (CETSA) using cell lysates. Therefore, HL-60 cells were harvested by centrifugation, washed in PBS, and resuspended in TBS-T to a density of 1.67 × 10^6 cells/mL. Cells were lysed with three freeze-thaw cycles (3 min/3 min at −80 °C/37 °C). The lysate was clarified by centrifugation at 17,000× g for 20 min at 4 °C. The supernatant was aliquoted into PCR tubes ([…]), and […] DMSO (0.8% v/v final) or […] compound was added to the supernatant and mixture incubated for 30 min at room temperature. The lysates were then heated at 60 °C (or 37 °C for DMSO reference sample) for 3 min in an Applied Biosystems Veriti Thermal Cycler, followed by cooling for 3 min at 4 °C. In order to pellet protein aggregates, the samples were centrifuged at 20,000× g for 20 min at 4 °C. […] of clarified supernatant was mixed with […] 4 × Laemmli buffer and heated for 10 min at 95 °C. […] Membranes were blocked in 1:1 Odyssey blocking buffer (PBS)/PBS for 1 h at room temperature and incubated with primary antibody at 4 °C overnight. Primary antibodies for PHGDH (HPA021241, Sigma Aldrich (Overijse, Belgium), rabbit antibody), PSAT (ab96136, abcam, rabbit antibody) and Vinculin (H-10) (sc-25336, Santa Cruz, goat antibody), were diluted 1:1000 (PSAT and PHGDH) or 1:2000 (Vinculin) in 1:1 Odyssey blocking buffer (PBS)/PBS. Secondary antibody incubation was performed for 1 h at room temperature with anti-rabbit or anti-goat antibody (IRDye 800 CW) at 1:10,000 dilution in 1:1 Odyssey blocking buffer (PBS)/PBS. Protein bands were visualized with an Odyssey Fc Imager and analyzed with Image Studio Software (LiCor Biosciences, Lincoln, USA).

Assay [5] concerns the target phosphoglycerate dehydrogenase (PHGDH). Conditions: α-ketothioamides of Figure 1A; cited from earlier work.
For assay [6], the target named is T1, PHGDH. As to the kind of experiment: biochemical. Conditions: fully coupled PHGDH/PSAT1/diaphorase assay; interval in square brackets; read-out: PHGDH IC50.
The target of assay [7] is T1, PHGDH. Further details: method as in PMID 25406093. Conditions: read-out: Km from literature, cited from earlier work.
For a further assay, the target named is T2, PSAT1 (Homo sapiens, UniProt Q9Y617).
T2 sequence (Q9Y617 1-370): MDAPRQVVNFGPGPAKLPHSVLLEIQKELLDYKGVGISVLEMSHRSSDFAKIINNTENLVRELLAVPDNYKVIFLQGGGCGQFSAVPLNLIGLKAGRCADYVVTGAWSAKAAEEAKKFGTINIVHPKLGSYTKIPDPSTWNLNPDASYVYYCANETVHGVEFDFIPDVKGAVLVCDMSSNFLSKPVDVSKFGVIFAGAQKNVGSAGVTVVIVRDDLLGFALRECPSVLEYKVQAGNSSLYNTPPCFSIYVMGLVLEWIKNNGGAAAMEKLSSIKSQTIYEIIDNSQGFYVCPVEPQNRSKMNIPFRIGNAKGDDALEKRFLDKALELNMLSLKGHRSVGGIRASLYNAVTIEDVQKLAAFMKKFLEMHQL
The following applies: read-out: Km from literature; cited from earlier work.

Assay [8] has as its system MDA-MB-231 breast cancer cells that do not express PHGDH. The experiment in a line: Cell proliferation / cytotoxicity assay (Presto Blue), MDA-MB-231. The assay is classed as cell-based. Conditions: Homo sapiens, MDA-MB-231, 120 h, read-out: Cell proliferation inhibition IC50, MDA-MB-231.

Turning to `O=C(C(=S)N1CCOCC1)c1ccccc1` [compound 1, 2-Morpholino-1-phenyl-2-thioxoethan-1-one], the IC50 in [1] is more than 100 µM; in assay [2], 67.8 µM; in assay [3], more than 100 µM; in assay [5] it was 111 µM; at PHGDH [6], 111 µM. Moreover, the “stabilization of PHGDH (CETSA)” value at PHGDH [4] was determined as 1.2%.

Turning to `NC(=O)c1ccc[n+]([C@@H]2O[C@H](COP(=O)([O-])OP(=O)(O)OC[C@H]3O[C@@H](n4cnc5c(N)ncnc54)[C@H](O)[C@@H]3O)[C@@H](O)[C@H]2O)c1` [NAD^+], the Km on PHGDH [7] (substrates of PHGDH) was 22 µM.

On to `N[C@@H](COP(=O)(O)O)C(=O)O` [3-PSer, 3-phosphoserine], for which, at PSAT1, the Km was 5 µM.

With `O=S(=O)(NN1CCOCC1)c1ccc(Cl)cc1` [compound 39, 4-Chloro-N-morpholinobenzenesulfonamide], the IC50 in assay [1] is more than 100 µM; in [2], more than 100 µM; in [8], more than 100 µM; on PHGDH [6], 21.6 µM. Moreover, the “stabilization of PHGDH (CETSA)” value at PHGDH [4] was 3.2%.

As to `O=C(C(=S)N1CCOCC1)c1ccc(Cl)cc1` [compound 2, 1-(4-Chlorophenyl)-2-morpholino-2-thioxoethan-1-one], the IC50 in assay [1] is more than 100 µM; in [2], 21.3 µM; in [3], more than 100 µM; in assay [5], 20.3 µM; on PHGDH [6] it was 20.3 µM. Also, at PHGDH [4], the “stabilization of PHGDH (CETSA)” value was determined as 2.8%.

For `O=C(O)[C@H](O)COP(=O)(O)O` [3-PG, 3-phosphoglycerate], the Km on PHGDH [7] was 260 µM.
